Laboratory results reported in ChEMBL document CHEMBL1201862, “PubChem BioAssay data set” (2004).
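Protocol summary: plate cells (96-well), add compound at 5 concentrations, incubate 48 h, interpolate endpoints linearly. The concentration for 50% growth inhibition is given as GI50.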 The source made the active and inactive calls. Cut-off read from the data, not from the text of the source: active = GI50 up to about 1.1 µM and inactive = higher.

How the values were obtained:
Assay in all cases: NCI-60 cell line screen, 48 h
DU-145 = tested on: DU-145
EKVX = tested on: EKVX
HCT-116 = tested on: HCT-116
HL-60 = tested on: HL-60
Hs-578T = tested on: Hs-578T
IGROV-1 = tested on: IGROV-1
M14 = tested on: M14
MDA-MB-231 = tested on: MDA-MB-231
MDA-MB-435 = tested on: MDA-MB-435
MOLT-4 = tested on: MOLT-4
NCI-H226 = tested on: NCI-H226
NCI-H522 = tested on: NCI-H522
NCI/ADR-RES = tested on: NCI/ADR-RES
OVCAR-5 = tested on: OVCAR-5
SF-539 = tested on: SF-539
SK-MEL-28 = tested on: SK-MEL-28
SN12C = tested on: SN12C
U-251 = tested on: U-251
UO-31 = tested on: UO-31

| Structure (SMILES) | GI50 (DU-145) | GI50 (EKVX) | GI50 (HCT-116) | GI50 (HL-60) | GI50 (Hs-578T) | GI50 (IGROV-1) | GI50 (M14) | GI50 (MDA-MB-231) | GI50 (MDA-MB-435) | GI50 (MOLT-4) | GI50 (NCI-H226) | GI50 (NCI-H522) | GI50 (NCI/ADR-RES) | GI50 (OVCAR-5) | GI50 (SF-539) | GI50 (SK-MEL-28) | GI50 (SN12C) | GI50 (U-251) | GI50 (UO-31) |
| --- | --- | --- | --- | --- | --- | --- | --- | --- | --- | --- | --- | --- | --- | --- | --- | --- | --- | --- | --- |
| O=C1OC2(c3ccc(O)cc3Oc3cc(O)ccc32)c2c1c(-c1ccccc1)c(-c1ccccc1)c(-c1ccccc1)c2-c1ccccc1 | 17.2 µM (inactive) | 25.8 µM (inactive) | 24.4 µM (inactive) | 14.8 µM (inactive) | 22 µM (inactive) | 19.1 µM (inactive) | 18.2 µM (inactive) | 18.7 µM (inactive) | 17.2 µM (inactive) | 23.9 µM (inactive) | 46.3 µM (inactive) | 18.2 µM (inactive) | 31.2 µM (inactive) | 20.4 µM (inactive) | 22.9 µM (inactive) | 20.8 µM (inactive) | 25.1 µM (inactive) | 17.7 µM (inactive) | 25.7 µM (inactive) |
| OC1C[C@H](c2ccccc2)C2(C(O)c3ccccc3C2O)[C@@H](c2ccccc2)C1 (stereo partly specified) | > 100 µM (inactive) | > 100 µM (inactive) | > 100 µM (inactive) | 27.9 µM (inactive) | > 100 µM (inactive) | > 100 µM (inactive) | > 100 µM (inactive) | > 100 µM (inactive) | > 100 µM (inactive) | > 100 µM (inactive) | > 100 µM (inactive) | 32.4 µM (inactive) | 14.3 µM (inactive) | > 100 µM (inactive) | > 100 µM (inactive) | > 100 µM (inactive) | > 100 µM (inactive) | > 100 µM (inactive) | > 100 µM (inactive) |
| c1cc(Sc2nc(Sc3ccncc3)nc(Sc3ccncc3)n2)ccn1 | > 100 µM (inactive) | > 100 µM (inactive) | > 100 µM (inactive) | > 100 µM (inactive) | > 100 µM (inactive) | > 100 µM (inactive) | > 100 µM (inactive) | > 100 µM (inactive) | > 100 µM (inactive) | > 100 µM (inactive) | > 100 µM (inactive) | > 100 µM (inactive) | > 100 µM (inactive) | > 100 µM (inactive) | > 100 µM (inactive) | > 100 µM (inactive) | > 100 µM (inactive) | > 100 µM (inactive) | > 100 µM (inactive) |
| COc1cc([C@@H]2c3cc4c(cc3[C@H](OC3OC5COC(C(C)C)OC5C(O)C3O)C3COC(=O)[C@@H]32)OCO4)cc(OC)c1OC (stereo partly specified) | 11.7 µM (inactive) | 10.2 µM (inactive) | 2.83 µM (inactive) | 3.85 µM (inactive) | 3.17 µM (inactive) | 4.17 µM (inactive) | 5.24 µM (inactive) | 5.77 µM (inactive) | 4.37 µM (inactive) | 4.84 µM (inactive) | 2.96 µM (inactive) | 3.24 µM (inactive) | 3.19 µM (inactive) | 10.3 µM (inactive) | 3.6 µM (inactive) | > 100 µM (inactive) | 19.5 µM (inactive) | 3.93 µM (inactive) | 11.1 µM (inactive) |
| COC(=O)C1(CCCCCBr)CCCCCCCCCCC1=O (stereo unspecified) | 88.5 µM (inactive) | 78.9 µM (inactive) | 26.4 µM (inactive) | 30 µM (inactive) | > 100 µM (inactive) | 30.5 µM (inactive) | 40.2 µM (inactive) | 36.6 µM (inactive) | 37.6 µM (inactive) | 17.9 µM (inactive) | 23.6 µM (inactive) | 20.5 µM (inactive) | 37.2 µM (inactive) | 37.3 µM (inactive) | 90.2 µM (inactive) | 35.3 µM (inactive) | 37.6 µM (inactive) | 28.3 µM (inactive) | 16.7 µM (inactive) |
| CCCC(=O)Nc1cc(C(=O)N2C[C@H]3C[C@@]34C2=CC(=O)c2[nH]cc(C)c24)n(COC)c1 | 0.116 µM (active) | 0.843 µM (active) | 0.182 µM (active) | 0.045 µM (active) | 0.512 µM (active) | 0.11 µM (active) | 0.662 µM (active) | 0.281 µM (active) | 0.19 µM (active) | 0.00879 µM (active) | 0.475 µM (active) | 0.0553 µM (active) | 0.656 µM (active) | 1.16 µM (inactive) | 0.177 µM (active) | 0.208 µM (active) | 0.966 µM (active) | 0.114 µM (active) | 0.843 µM (active) |
| COc1ccc2c3c1OC1C(OC)(OC)C=C[C@@]4(Br)[C@@H](C2)N(CC2CC2)CC[C@]314 (stereo partly specified) | > 100 µM (inactive) | > 100 µM (inactive) | 44 µM (inactive) | > 100 µM (inactive) | 41.7 µM (inactive) | 62.2 µM (inactive) | 27.1 µM (inactive) | 45.6 µM (inactive) | 61.2 µM (inactive) | 80.7 µM (inactive) | 58.5 µM (inactive) | 21 µM (inactive) | > 100 µM (inactive) | > 100 µM (inactive) | > 100 µM (inactive) | > 100 µM (inactive) | > 100 µM (inactive) | > 100 µM (inactive) | 35.2 µM (inactive) |
| CC(=O)c1sc2n(C)c(=O)c3ccccc3[n+]2c1C | > 100 µM (inactive) | > 100 µM (inactive) | > 100 µM (inactive) | > 100 µM (inactive) | > 100 µM (inactive) | > 100 µM (inactive) | > 100 µM (inactive) | > 100 µM (inactive) | > 100 µM (inactive) | > 100 µM (inactive) | > 100 µM (inactive) | > 100 µM (inactive) | > 100 µM (inactive) | > 100 µM (inactive) | > 100 µM (inactive) | > 100 µM (inactive) | > 100 µM (inactive) | > 100 µM (inactive) | > 100 µM (inactive) |
| COc1ccc(-c2nc(-c3cc4ccccc4oc3=O)cs2)cc1 | > 100 µM (inactive) | > 100 µM (inactive) | 37.8 µM (inactive) | > 100 µM (inactive) | 40.9 µM (inactive) | 86.1 µM (inactive) | > 100 µM (inactive) | 20.9 µM (inactive) | > 100 µM (inactive) | > 100 µM (inactive) | > 100 µM (inactive) | > 100 µM (inactive) | 47.9 µM (inactive) | > 100 µM (inactive) | 30.9 µM (inactive) | > 100 µM (inactive) | 44.5 µM (inactive) | 21.9 µM (inactive) | 35.7 µM (inactive) |
| c1ccc(C(=NNc2cnc3ccccc3n2)c2ccccn2)cc1 | 3.3 µM (inactive) | 0.269 µM (active) | 1.76 µM (inactive) | 0.109 µM (active) | 12 µM (inactive) | 1.75 µM (inactive) | 0.425 µM (active) | 1 µM (active) | 3.96 µM (inactive) | 0.139 µM (active) | 4.9 µM (inactive) | 0.419 µM (active) | 0.494 µM (active) | 2.59 µM (inactive) | 1.58 µM (inactive) | 12.3 µM (inactive) | 0.991 µM (active) | 2.31 µM (inactive) | 0.76 µM (active) |
| CN1CCN([C@H]2C[C@H]3[C@@H]4CC=C5C[C@@H](O)CC[C@]5(C)[C@H]4CC[C@]3(C)[C@H]2O)CC1 | > 100 µM (inactive) | > 100 µM (inactive) | 30.7 µM (inactive) | 16.8 µM (inactive) | > 100 µM (inactive) | > 90.8 µM (inactive) | 17.5 µM (inactive) | > 48.3 µM (inactive) | 16.9 µM (inactive) | 49.7 µM (inactive) | > 100 µM (inactive) | > 100 µM (inactive) | > 87.7 µM (inactive) | > 47.5 µM (inactive) | 26.2 µM (inactive) | 27.4 µM (inactive) | > 100 µM (inactive) | 17.1 µM (inactive) | > 100 µM (inactive) |
| Oc1ccc(O)c(CNc2ccccc2)c1 | 12.3 µM (inactive) | 18.7 µM (inactive) | 7.26 µM (inactive) | 2.67 µM (inactive) | 25.5 µM (inactive) | 8.53 µM (inactive) | 15.7 µM (inactive) | 17.7 µM (inactive) | 8.81 µM (inactive) | 2.26 µM (inactive) | 26.7 µM (inactive) | 1.94 µM (inactive) | 7.01 µM (inactive) | 21.6 µM (inactive) | 3.46 µM (inactive) | 33 µM (inactive) | 11.3 µM (inactive) | 17.1 µM (inactive) | 10.7 µM (inactive) |
| O=C(CSc1nc2ccc([N+](=O)[O-])cc2s1)c1ccc2ccccc2c1 | > 100 µM (inactive) | > 100 µM (inactive) | > 100 µM (inactive) | > 100 µM (inactive) | 89.5 µM (inactive) | > 100 µM (inactive) | > 100 µM (inactive) | > 100 µM (inactive) | > 100 µM (inactive) | 74.6 µM (inactive) | > 100 µM (inactive) | > 100 µM (inactive) | > 100 µM (inactive) | > 100 µM (inactive) | 62.2 µM (inactive) | > 100 µM (inactive) | > 100 µM (inactive) | > 100 µM (inactive) | > 100 µM (inactive) |
| COc1ccc(N2C(=O)C3ON(C(C(N)=O)c4ccccc4)C(c4cc5ccccc5c5ccccc45)C3C2=O)cc1 (stereo unspecified) | > 50 µM (inactive) | 24.5 µM (inactive) | 18.2 µM (inactive) | 9.27 µM (inactive) | > 50 µM (inactive) | 18.4 µM (inactive) | 17.7 µM (inactive) | > 50 µM (inactive) | 18.4 µM (inactive) | 14.5 µM (inactive) | 26.3 µM (inactive) | 29.5 µM (inactive) | > 50 µM (inactive) | > 50 µM (inactive) | 16.1 µM (inactive) | > 50 µM (inactive) | 14 µM (inactive) | 38.5 µM (inactive) | 16.7 µM (inactive) |
